# Read-outs that look alike come from different tables or passages of the source.
# Assays:
# Experiment in all cases: biochemical
# BMX = biological target: T1, BMX (Homo sapiens, UniProt P51813)
# T1 sequence (P51813 1-675): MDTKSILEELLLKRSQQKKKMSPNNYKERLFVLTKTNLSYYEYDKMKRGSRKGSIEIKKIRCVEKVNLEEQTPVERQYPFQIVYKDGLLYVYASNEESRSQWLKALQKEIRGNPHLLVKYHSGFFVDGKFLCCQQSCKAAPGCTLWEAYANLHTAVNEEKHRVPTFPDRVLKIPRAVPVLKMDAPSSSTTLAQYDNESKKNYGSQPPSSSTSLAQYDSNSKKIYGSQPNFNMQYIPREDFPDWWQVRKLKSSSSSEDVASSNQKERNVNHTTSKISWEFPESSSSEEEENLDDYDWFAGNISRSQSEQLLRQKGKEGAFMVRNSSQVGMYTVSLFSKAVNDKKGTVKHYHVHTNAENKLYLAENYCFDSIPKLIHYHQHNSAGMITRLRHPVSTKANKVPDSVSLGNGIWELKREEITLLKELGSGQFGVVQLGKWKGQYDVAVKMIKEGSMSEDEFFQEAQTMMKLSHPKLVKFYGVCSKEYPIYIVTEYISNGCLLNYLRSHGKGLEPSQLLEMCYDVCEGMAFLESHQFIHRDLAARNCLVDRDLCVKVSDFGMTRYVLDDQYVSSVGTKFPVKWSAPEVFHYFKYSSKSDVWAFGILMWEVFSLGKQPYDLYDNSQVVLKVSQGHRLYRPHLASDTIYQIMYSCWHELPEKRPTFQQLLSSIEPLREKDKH
# CaMK1g = CaMK1g (Homo sapiens, UniProt Q96NX5)
# FLT1 = FLT1 (Homo sapiens, UniProt P17948)
# MELK = MELK (Homo sapiens, UniProt Q14680)
# MER = biological target: T2, MER (Homo sapiens, UniProt Q12866)
# T2 sequence (Q12866 1-999): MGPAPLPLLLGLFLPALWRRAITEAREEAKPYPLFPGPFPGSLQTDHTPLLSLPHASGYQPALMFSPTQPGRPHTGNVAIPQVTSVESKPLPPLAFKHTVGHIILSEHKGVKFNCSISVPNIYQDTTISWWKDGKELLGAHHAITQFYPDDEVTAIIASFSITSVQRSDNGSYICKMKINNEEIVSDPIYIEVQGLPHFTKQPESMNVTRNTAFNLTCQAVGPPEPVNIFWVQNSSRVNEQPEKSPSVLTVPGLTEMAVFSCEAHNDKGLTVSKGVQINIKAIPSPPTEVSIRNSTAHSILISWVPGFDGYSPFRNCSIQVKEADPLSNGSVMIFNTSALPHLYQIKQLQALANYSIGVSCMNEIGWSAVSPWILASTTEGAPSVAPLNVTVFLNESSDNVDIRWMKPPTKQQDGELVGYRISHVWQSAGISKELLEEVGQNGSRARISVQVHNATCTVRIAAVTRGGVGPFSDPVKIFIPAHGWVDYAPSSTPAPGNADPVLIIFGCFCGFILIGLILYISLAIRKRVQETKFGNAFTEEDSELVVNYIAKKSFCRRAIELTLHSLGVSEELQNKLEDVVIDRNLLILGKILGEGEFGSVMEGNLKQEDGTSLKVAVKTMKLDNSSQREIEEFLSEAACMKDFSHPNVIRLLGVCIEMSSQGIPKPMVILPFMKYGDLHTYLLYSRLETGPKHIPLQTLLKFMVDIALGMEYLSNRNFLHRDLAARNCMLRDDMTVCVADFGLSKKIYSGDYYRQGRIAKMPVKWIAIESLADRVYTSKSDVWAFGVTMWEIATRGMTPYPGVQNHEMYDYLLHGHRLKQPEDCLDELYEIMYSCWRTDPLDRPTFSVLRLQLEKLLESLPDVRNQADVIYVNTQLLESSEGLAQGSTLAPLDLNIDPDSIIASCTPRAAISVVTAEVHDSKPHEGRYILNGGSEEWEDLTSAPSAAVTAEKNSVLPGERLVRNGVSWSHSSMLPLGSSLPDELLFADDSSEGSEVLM
# MYT1 = biological target: T3, MYT1 (Homo sapiens, UniProt Q99640)
# T3 sequence (Q99640 1-499): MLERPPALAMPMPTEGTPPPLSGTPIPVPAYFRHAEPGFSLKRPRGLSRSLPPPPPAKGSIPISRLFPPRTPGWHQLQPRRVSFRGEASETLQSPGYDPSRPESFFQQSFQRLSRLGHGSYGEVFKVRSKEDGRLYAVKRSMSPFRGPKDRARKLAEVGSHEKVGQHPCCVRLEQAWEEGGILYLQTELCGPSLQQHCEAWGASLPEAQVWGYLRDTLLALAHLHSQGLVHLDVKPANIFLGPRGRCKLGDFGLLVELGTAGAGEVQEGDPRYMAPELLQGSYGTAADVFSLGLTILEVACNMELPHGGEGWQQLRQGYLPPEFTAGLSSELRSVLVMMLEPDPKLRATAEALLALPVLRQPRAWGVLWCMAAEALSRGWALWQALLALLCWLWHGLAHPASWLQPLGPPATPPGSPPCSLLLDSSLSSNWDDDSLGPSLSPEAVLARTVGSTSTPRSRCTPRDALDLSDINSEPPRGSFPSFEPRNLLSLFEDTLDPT
# VRK1 = biological target: T4, VRK1 (Homo sapiens, UniProt Q99986)
# T4 sequence (Q99986 1-396): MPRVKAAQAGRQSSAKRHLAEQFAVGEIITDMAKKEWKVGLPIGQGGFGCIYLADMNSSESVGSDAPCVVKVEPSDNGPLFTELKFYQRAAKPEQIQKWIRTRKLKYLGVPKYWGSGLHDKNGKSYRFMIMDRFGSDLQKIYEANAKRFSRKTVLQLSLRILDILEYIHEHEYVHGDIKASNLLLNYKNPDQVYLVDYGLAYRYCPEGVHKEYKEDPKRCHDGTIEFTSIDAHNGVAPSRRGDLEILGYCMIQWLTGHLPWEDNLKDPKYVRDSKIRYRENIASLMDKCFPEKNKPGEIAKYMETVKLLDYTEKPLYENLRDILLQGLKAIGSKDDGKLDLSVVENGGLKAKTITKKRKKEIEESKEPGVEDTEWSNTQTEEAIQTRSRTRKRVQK
# Sequence of CaMK1g (Q96NX5 whole entry): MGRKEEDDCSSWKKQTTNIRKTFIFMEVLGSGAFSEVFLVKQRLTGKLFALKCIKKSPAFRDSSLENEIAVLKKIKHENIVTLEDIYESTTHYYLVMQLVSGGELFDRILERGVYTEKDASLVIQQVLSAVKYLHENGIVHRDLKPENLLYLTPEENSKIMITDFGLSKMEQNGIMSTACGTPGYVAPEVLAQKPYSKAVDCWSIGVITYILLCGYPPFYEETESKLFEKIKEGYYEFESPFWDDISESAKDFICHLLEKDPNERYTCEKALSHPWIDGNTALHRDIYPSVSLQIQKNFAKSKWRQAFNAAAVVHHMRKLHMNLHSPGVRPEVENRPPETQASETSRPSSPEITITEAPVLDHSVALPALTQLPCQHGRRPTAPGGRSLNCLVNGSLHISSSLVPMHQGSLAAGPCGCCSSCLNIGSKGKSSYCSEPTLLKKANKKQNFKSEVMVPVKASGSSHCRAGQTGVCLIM
# Sequence of MELK (Q14680 whole entry): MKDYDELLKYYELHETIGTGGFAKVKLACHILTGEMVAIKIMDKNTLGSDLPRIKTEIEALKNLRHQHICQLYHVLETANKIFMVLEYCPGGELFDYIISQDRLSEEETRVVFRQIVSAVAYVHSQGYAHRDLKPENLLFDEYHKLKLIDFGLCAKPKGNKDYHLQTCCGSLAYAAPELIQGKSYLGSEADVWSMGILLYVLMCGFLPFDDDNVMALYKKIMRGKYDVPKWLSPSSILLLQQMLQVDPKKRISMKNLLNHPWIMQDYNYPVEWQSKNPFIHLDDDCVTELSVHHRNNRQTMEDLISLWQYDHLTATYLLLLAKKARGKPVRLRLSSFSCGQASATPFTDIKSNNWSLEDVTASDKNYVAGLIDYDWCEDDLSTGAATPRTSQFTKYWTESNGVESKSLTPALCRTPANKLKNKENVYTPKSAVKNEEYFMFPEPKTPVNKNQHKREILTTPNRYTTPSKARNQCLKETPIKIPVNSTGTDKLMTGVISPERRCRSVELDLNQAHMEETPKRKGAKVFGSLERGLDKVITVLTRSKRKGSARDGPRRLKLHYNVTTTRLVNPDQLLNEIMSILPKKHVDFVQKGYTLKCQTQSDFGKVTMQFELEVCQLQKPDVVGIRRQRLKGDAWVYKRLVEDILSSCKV
# Sequence of FLT1 (P17948 whole entry): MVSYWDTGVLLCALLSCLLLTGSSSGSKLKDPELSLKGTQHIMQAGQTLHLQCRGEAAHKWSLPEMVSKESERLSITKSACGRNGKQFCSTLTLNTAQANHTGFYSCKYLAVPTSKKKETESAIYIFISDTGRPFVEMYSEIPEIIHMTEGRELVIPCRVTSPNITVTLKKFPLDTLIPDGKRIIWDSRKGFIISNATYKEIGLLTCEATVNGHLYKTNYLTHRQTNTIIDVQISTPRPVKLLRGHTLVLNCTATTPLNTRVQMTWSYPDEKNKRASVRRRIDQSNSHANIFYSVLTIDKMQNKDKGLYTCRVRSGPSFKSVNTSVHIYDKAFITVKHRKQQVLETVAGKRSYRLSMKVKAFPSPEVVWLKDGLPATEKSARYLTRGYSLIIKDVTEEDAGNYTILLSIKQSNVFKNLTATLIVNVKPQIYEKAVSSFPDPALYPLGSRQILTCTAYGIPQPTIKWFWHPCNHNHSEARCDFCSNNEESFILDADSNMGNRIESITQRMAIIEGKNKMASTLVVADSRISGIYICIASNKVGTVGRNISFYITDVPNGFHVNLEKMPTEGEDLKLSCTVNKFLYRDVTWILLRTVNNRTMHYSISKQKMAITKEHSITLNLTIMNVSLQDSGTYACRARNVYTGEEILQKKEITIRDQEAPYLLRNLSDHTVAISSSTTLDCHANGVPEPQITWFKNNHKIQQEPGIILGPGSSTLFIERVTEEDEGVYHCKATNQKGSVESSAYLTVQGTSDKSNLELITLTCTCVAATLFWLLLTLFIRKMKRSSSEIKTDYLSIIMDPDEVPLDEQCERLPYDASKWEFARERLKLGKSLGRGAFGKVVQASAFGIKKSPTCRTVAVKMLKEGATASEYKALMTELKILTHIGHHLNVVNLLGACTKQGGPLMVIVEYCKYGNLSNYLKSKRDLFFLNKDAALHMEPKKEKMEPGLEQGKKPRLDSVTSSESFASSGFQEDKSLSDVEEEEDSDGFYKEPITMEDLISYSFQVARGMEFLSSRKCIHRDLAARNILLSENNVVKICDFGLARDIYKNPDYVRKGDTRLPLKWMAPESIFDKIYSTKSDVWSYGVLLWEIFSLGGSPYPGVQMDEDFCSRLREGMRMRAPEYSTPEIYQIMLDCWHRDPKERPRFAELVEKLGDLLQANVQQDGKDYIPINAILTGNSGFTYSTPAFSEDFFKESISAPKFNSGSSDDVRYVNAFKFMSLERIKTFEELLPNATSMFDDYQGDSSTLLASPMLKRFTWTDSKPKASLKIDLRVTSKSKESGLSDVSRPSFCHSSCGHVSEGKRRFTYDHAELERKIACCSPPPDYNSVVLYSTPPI
smiles,measurement,setting,value
"CNc1ncc2cc(-c3cc(F)c(-c4cccc(C)n4)cc3F)c(=O)n(CCCCN)c2n1 [compound 12, 8-(4-Aminobutyl)-6-(2,5-difluoro-4-(6-methylpyridin-2-yl)phenyl)-2-(methylamino)pyrido[2,3-d]pyrimidin-7(8H)-one]",ΔTm at 10 µM,BMX; read-out: dTm 12,3.6 °C
same,ΔTm at 10 µM,CaMK1g; read-out: dTm 12,3.4 °C
same,ΔTm at 10 µM,FLT1; read-out: dTm 12,2.8 °C
same,ΔTm at 10 µM,MELK; read-out: dTm 12,6.1 °C
same,ΔTm at 10 µM,MER; read-out: dTm 12,1.1 °C
same,ΔTm at 10 µM,MYT1; read-out: dTm 12,-1.8 °C
same,ΔTm at 10 µM,VRK1; read-out: dTm 12,0.3 °C
"CNc1ncc2cc(-c3cc(C(F)(F)F)ccc3Cl)c(=O)n(CCCCN)c2n1 [compound 9, 8-(4-Aminobutyl)-6-(2-chloro-5-(trifluoromethyl)phenyl)-2-(methylamino)pyrido[2,3-d]pyrimidin-7(8H)-one]",ΔTm at 10 µM,BMX; read-out: dTm 9,3.2 °C
same,ΔTm at 10 µM,CaMK1g; read-out: dTm 9,0.6 °C
same,ΔTm at 10 µM,FLT1; read-out: dTm 9,5.3 °C
same,ΔTm at 10 µM,MELK; read-out: dTm 9,1.6 °C
same,ΔTm at 10 µM,MER; read-out: dTm 9,0.2 °C
same,ΔTm at 10 µM,MYT1; read-out: dTm 9,-0.2 °C
same,ΔTm at 10 µM,VRK1; read-out: dTm 9,0.1 °C
"CNc1ncc2cc(-c3cc(Cl)ccc3Cl)c(=O)n(CCCCN)c2n1 [compound 8, 8-(4-Aminobutyl)-6-(2,5-dichlorophenyl)-2-(methylamino)pyrido[2,3-d]pyrimidin-7(8H)-one]",ΔTm at 10 µM,BMX; read-out: dTm 8,4 °C
same,ΔTm at 10 µM,CaMK1g; read-out: dTm 8,1.1 °C
same,ΔTm at 10 µM,FLT1; read-out: dTm 8,6 °C
same,ΔTm at 10 µM,MELK; read-out: dTm 8,4.6 °C
same,ΔTm at 10 µM,MER; read-out: dTm 8,0.5 °C
same,ΔTm at 10 µM,MYT1; read-out: dTm 8,0.3 °C
same,ΔTm at 10 µM,VRK1; read-out: dTm 8,0.7 °C
"CNc1ncc2cc(-c3cc(Cl)ccc3Br)c(=O)n(CCCCN)c2n1 [compound 10, 8-(4-Aminobutyl)-6-(2-bromo-5-chlorophenyl)-2-(methylamino)pyrido[2,3-d]pyrimidin-7(8H)-one]",ΔTm at 10 µM,BMX; read-out: dTm 10,3.9 °C
same,ΔTm at 10 µM,CaMK1g; read-out: dTm 10,0.7 °C
same,ΔTm at 10 µM,FLT1; read-out: dTm 10,5 °C
same,ΔTm at 10 µM,MELK; read-out: dTm 10,4.3 °C
same,ΔTm at 10 µM,MER; read-out: dTm 10,0.7 °C
same,ΔTm at 10 µM,MYT1; read-out: dTm 10,0.6 °C
same,ΔTm at 10 µM,VRK1; read-out: dTm 10,0.7 °C
"CNc1ncc2cc(-c3cc(Br)ccc3Br)c(=O)n(CCCCN)c2n1 [compound 11, 8-(4-Aminobutyl)-6-(2,5-dibromophenyl)-2-(methylamino)pyrido[2,3-d]pyrimidin-7(8H)-one]",ΔTm at 10 µM,BMX; read-out: dTm 11,4.2 °C
same,ΔTm at 10 µM,CaMK1g; read-out: dTm 11,0.8 °C
same,ΔTm at 10 µM,FLT1; read-out: dTm 11,5.8 °C
same,ΔTm at 10 µM,MELK; read-out: dTm 11,4.2 °C
same,ΔTm at 10 µM,MER; read-out: dTm 11,0.6 °C
same,ΔTm at 10 µM,MYT1; read-out: dTm 11,-0.4 °C
same,ΔTm at 10 µM,VRK1; read-out: dTm 11,0.5 °C
